“And” between values parts separate entries of the source, which are not always exact repeats. Identical values can stand only once.
Test system: adolescents with Single Ventricle Heart Disease who underwent Fontan palliation
Assay: FALD study (FUEL Extension): Enhanced Liver Fibrosis (ELF) score from serum HA, PIIINP, TIMP-1
Type: in vivo, human
Set-up: key to Baseline ELF, Mean (SD) / ELF Score, Post Baseline: ELF score: <7.7 none/mild, 7.7-9.8 moderate, 9.8-11.3 severe, >11.3 cirrhosis
Description: The FALD study, ClinicalTrials.gov Identifier: NCT03430583, which is incorporated herein by reference in its entirety, was an open-label extension study that integrated with the FUEL Extension Trial. […] Both the U− cohort and the U+ cohort had liver stiffness measured by ultrasound and MR elastography (where available), and ELF biomarkers analyzed, as described above. […] The Enhanced Liver Fibrosis (ELF) scores were based on the serum levels of hyaluronic acid (HA), amino-terminal propeptide of type III collagen (PIIINP), and tissue inhibitor of metalloproteinase-1 (TIMP-1). Testing was performed by the FUEL-OLE Central Laboratory using the serum samples. In accordance with prior studies, we assigned those patients with scores of <7.7 to the no-fibrosis or mild fibrosis group, 7.7-9.8 to the moderate fibrosis group, 9.8-11.3 to the severe fibrosis group, and >11.3 to the cirrhosis group. The primary outcome measure of the FALD study was the range of liver stiffness in adolescents with Single Ventricle Heart Disease who underwent Fontan palliation. Secondary outcome measures included the effect of drug therapy on liver stiffness, and the effect of drug therapy on Enhanced Liver Fibrosis (ELF) score. See Clinical Trials.gov identifier NCT03430583, at p. 3. It is to be understood that present invention contemplates udenafil drug products that are therapeutically equivalent to the udenafil drug products of the present invention.

[1] = Cohort U+ & U− Pooled, baseline ELF Cirrhosis (N 17)
[2] = Cohort U+ & U− Pooled, baseline ELF moderate fibrosis (N 20)
[3] = Cohort U+ & U− Pooled, baseline ELF moderate fibrosis (N 20), listed as udenafil
[4] = Cohort U+ & U− Pooled, baseline ELF severe fibrosis (N 36)
[5] = Cohort U+, baseline ELF Cirrhosis (N 9)
[6] = Cohort U+, baseline ELF moderate fibrosis (N 8)
[7] = Cohort U+, baseline ELF severe fibrosis (N 15)
[8] = Cohort U− (udenafil for 52 weeks), individual subject
[9] = Cohort U−, baseline ELF Cirrhosis (N 8)
[10] = Cohort U−, baseline ELF moderate fibrosis (N 12)
[11] = Cohort U−, baseline ELF moderate fibrosis (N 12), listed as udenafil
[12] = Cohort U−, baseline ELF severe fibrosis (N 21)
[13] = FALD, cohort U+ (78 weeks udenafil)

CCCOc1ccc(S(=O)(=O)NCCC2CCCN2C)cc1-c1nc2c(CCC)nn(C)c2c(=O)[nH]1 (stereo not shown) [Udenafil, udenafil]
Patients with Improved ELF fibrosis category (Cohort U+ & U− Pooled, 41/73): 41/73 (56%) Improved
Patients with post baseline ELF score Mild, n (%) [1]: 0
Patients with post baseline ELF score Sev, n (%) [1]: 13 (76%)
Patients with post baseline ELF score Sev, n (%) (Cohort U+ & U− Pooled, baseline ELF Cirrhosis (N 17), listed as udenafil): 6
Patients with post baseline ELF score Mild, n (%) [2]: 1 (5%)
Patients with post baseline ELF score Sev, n (%) [2]: 8 (40%)
Patients with post baseline ELF score Mild, n (%) [3]: 1
Patients with post baseline ELF score Sev, n (%) [3]: 8
Patients with post baseline ELF score Mild, n (%) [4]: 0
Patients with post baseline ELF score Sev, n (%) [4]: 13 (36%)
Patients with post baseline ELF score Sev, n (%) (Cohort U+ & U− Pooled, baseline ELF severe fibrosis (N 36), listed as udenafil): 8
Patients with Improved ELF fibrosis category (Cohort U+, 19/32): 19/32 (59%) Improved
Patients with post baseline ELF score Mild, n (%) [5]: 0
Patients with post baseline ELF score Sev, n (%) [5]: 7 (78%)
Patients with post baseline ELF score Sev, n (%) (Cohort U+, baseline ELF Cirrhosis (N 9), listed as udenafil): 7
Patients with post baseline ELF score Mild, n (%) [6]: 0
Patients with post baseline ELF score Sev, n (%) [6]: 0
Patients with post baseline ELF score Mild, n (%) [7]: 0
Patients with post baseline ELF score Sev, n (%) [7]: 5 (33%)
Patients with post baseline ELF score Sev, n (%) (Cohort U+, baseline ELF severe fibrosis (N 15), listed as udenafil): 5
ELF Score, % Change from Baseline [8]: −7.61% and −11.19% and −20.06% and −15.92% and 10.85% and 9.365%
ELF Score, Change from Baseline [8]: −0.78 and −1.22 and −2.03 and −1.85 and 0.97 and 0.9 and 0.26
ELF Score, Post Baseline (Cohort U− (udenafil for 52 weeks), individual subject, Post Baseline visit (52 week)): 9.47 and 9.68 and 8.09 and 9.77 and 9.91 and 10.51 and 9.67
Patients with Improved ELF fibrosis category (Cohort U−, 22/41): 22/41 (54%) Improved
Patients with post baseline ELF score Mild, n (%) [9]: 0
Patients with post baseline ELF score Sev, n (%) [9]: 6 (75%)
Patients with post baseline ELF score Sev, n (%) (Cohort U−, baseline ELF Cirrhosis (N 8), listed as udenafil): 6
Patients with post baseline ELF score Mild, n (%) [10]: 1 (8%)
Patients with post baseline ELF score Sev, n (%) [10]: 8 (67%)
Patients with post baseline ELF score Mild, n (%) [11]: 1
Patients with post baseline ELF score Sev, n (%) [11]: 8
Patients with post baseline ELF score Mild, n (%) [12]: 0
Patients with post baseline ELF score Sev, n (%) [12]: 8 (38%)
Patients with post baseline ELF score Sev, n (%) (Cohort U−, baseline ELF severe fibrosis (N 21), listed as udenafil): 8
ELF Percent Change: Week 52-Baseline, Median (FALD, Total): −7.2%
Week 52 ELF, Median (FALD, Total): 9.7
Baseline ELF, Mean (SD) (FALD, Total (U+ and U−)): 10.4
Week 52 ELF, Mean (SD) (FALD, Total (U+ and U−)): 9.8
ELF Percent Change: Week 52-Baseline, Mean (SD) (FALD, Total, p <0.0001 vs 0): −6.8 (7.69) %
Week 52 ELF, Median (FALD, cohort U+): 9.6
Baseline ELF, Mean (SD) (FALD, cohort U+ (6 months udenafil in FUEL before baseline)): 10.5
Baseline ELF, Mean (SD) (FALD, cohort U+ (6 months udenafil in FUEL before baseline), listed as udenafil): 10.5
Week 52 ELF, Mean (SD) (FALD, cohort U+ (18 months udenafil, 87.5 mg twice daily)): 9.7
Week 52 ELF, Mean (SD) (FALD, cohort U+ (18 months udenafil, 87.5 mg twice daily), listed as udenafil): 9.7
Patients with improved ELF scores [13]: About 94%
Subjects with a decrease (improvement) in ELF score [13]: all but 2 of 31
ELF Percent Change: Week 52-Baseline, Mean (SD) (FALD, cohort U+, p <0.0001 vs 0): −8.0 (5.56) %
Average improvement of ELF score, baseline to week 52 (FALD, cohort U+, p=0.0001): approximately 8%
ELF Percent Change: Week 52-Baseline, Median (FALD, cohort U−): −6.1%
Week 52 ELF, Median (FALD, cohort U−): 9.9
Week 52 ELF, Mean (SD) (FALD, cohort U− (1 year udenafil, 87.5 mg twice daily)): 9.8
Week 52 ELF, Mean (SD) (FALD, cohort U− (1 year udenafil, 87.5 mg twice daily), listed as udenafil): 9.8
Subjects with a decrease (improvement) in ELF score, number (FALD, cohort U− (52 weeks udenafil), of 40 subjects): about 30
Baseline ELF, Mean (SD) (FALD, cohort U− (udenafil-naïve at baseline)): 10.3
Baseline ELF, Mean (SD) (FALD, cohort U− (udenafil-naïve at baseline), listed as udenafil): 10.3
Average improvement of ELF score, baseline to week 52 (FALD, cohort U−, based on paired data): about 5.9%
ELF Percent Change: Week 52-Baseline, Mean (SD) (FALD, cohort U−, p 0.0001 vs 0): −5.9 (8.98) %
Subjects with an improved ELF score (FALD, overall (U+ and U−)): about 84%
